Measurements as given in ChEMBL document CHEMBL4800732, “Data for DCP probe TP-040” (2021).
Values belong to the compound of their own block, whether it stands above or below them.

How the values were obtained:
[1] = target: T1, GABA-A receptor; anion channel (Rattus norvegicus) (UniProt O09028+P15431+P18506+P18508+P19969+P20236+P23574+P23576+P28471+P28473+P30191+P62813+P63079+P63138+Q91ZM7+Q9ES14); settings: Compound concentration 10.0 uM
[2] = target: Sodium-dependent dopamine transporter (Homo sapiens, UniProt Q01959); settings: Compound concentration 10.0 uM
[3] = target: 5-hydroxytryptamine receptor 2C (Homo sapiens) (UniProt P28335); settings: Compound concentration 10.0 uM
[4] = target: 5-hydroxytryptamine receptor 1E (Homo sapiens) (UniProt P28566); settings: Compound concentration 10.0 uM
Sequence of 5-hydroxytryptamine receptor 1E (Homo sapiens) (P28566 whole entry): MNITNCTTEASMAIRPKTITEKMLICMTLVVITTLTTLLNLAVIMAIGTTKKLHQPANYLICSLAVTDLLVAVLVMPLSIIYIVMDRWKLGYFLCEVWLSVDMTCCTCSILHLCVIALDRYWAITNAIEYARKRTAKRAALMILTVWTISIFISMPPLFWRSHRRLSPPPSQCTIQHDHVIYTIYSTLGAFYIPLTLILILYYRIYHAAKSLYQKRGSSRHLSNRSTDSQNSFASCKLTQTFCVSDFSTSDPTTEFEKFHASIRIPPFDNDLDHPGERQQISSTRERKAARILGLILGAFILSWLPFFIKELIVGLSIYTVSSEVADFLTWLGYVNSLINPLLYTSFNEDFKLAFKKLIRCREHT

[5] = target: Sigma intracellular receptor 2 (Homo sapiens, UniProt Q5BJF2); settings: Compound concentration 10.0 uM
[6] = target: D(4) dopamine receptor (Homo sapiens) (UniProt P21917); settings: Compound concentration 10.0 uM
Sequence of D(4) dopamine receptor (Homo sapiens) (P21917 whole entry): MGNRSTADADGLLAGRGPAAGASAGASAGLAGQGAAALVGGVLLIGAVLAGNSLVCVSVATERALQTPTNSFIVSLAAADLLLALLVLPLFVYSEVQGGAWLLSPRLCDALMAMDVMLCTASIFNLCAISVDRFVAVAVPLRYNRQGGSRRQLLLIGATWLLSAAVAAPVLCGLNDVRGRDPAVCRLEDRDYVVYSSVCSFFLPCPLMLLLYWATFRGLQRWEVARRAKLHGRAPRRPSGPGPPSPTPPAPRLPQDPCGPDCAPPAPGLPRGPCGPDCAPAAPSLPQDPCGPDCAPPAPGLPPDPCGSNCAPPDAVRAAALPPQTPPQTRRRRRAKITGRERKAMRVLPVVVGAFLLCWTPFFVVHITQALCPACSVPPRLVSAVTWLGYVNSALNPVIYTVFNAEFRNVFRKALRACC

[7] = target: Alpha-1D adrenergic receptor (Homo sapiens) (UniProt P25100); settings: Compound concentration 10.0 uM
Sequence of Alpha-1D adrenergic receptor (Homo sapiens) (P25100 whole entry): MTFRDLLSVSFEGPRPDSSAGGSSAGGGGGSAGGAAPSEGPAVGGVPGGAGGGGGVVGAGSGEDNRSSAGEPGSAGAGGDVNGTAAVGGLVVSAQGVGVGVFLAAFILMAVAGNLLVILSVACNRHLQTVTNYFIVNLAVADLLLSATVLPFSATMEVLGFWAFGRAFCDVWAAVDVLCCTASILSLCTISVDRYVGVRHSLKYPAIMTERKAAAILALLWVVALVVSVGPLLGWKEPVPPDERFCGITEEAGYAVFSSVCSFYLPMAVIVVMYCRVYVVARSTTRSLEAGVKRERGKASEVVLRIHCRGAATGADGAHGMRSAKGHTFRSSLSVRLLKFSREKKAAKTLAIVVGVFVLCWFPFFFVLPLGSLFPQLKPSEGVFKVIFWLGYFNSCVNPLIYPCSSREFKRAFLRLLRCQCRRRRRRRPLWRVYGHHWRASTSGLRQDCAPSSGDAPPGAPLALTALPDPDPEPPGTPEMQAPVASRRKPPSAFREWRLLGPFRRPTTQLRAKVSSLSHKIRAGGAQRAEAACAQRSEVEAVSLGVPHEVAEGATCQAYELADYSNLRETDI

[8] = target: T2, Sodium-dependent noradrenaline transporter (Homo sapiens, UniProt P23975); settings: Compound concentration 10.0 uM
T2 sequence (P23975 whole entry): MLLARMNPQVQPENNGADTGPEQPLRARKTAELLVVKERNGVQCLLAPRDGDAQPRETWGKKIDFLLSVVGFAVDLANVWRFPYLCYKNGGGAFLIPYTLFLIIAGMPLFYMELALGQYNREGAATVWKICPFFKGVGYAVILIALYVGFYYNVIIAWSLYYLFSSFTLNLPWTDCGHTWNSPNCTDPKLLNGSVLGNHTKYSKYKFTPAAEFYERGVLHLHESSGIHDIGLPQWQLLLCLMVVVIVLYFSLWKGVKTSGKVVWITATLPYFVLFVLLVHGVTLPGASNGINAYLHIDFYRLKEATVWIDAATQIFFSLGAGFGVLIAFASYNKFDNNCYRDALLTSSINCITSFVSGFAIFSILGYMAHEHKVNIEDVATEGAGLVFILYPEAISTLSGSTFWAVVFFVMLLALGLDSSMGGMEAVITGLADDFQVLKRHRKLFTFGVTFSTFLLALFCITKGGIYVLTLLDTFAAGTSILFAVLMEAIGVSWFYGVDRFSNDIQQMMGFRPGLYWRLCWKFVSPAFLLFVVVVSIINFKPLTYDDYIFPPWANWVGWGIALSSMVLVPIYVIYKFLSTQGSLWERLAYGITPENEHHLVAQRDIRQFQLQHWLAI

[9] = target: Alpha-1B adrenergic receptor (Homo sapiens) (UniProt P35368); settings: Compound concentration 10.0 uM
[10] = target: Sigma non-opioid intracellular receptor 1 (Homo sapiens, UniProt Q99720); settings: Compound concentration 10.0 uM
[11] = target: Muscarinic acetylcholine receptor M5 (Homo sapiens) (UniProt P08912); settings: Compound concentration 10.0 uM
[12] = target: T3, Alpha-2C adrenergic receptor (Homo sapiens, UniProt P18825); experiment: GPCRScan assay: inhibition of Alpha2C; design: radioligand conc. used [nm] 0.5 – 1.0, parental cells stable MDCK
T3 sequence (P18825 whole entry): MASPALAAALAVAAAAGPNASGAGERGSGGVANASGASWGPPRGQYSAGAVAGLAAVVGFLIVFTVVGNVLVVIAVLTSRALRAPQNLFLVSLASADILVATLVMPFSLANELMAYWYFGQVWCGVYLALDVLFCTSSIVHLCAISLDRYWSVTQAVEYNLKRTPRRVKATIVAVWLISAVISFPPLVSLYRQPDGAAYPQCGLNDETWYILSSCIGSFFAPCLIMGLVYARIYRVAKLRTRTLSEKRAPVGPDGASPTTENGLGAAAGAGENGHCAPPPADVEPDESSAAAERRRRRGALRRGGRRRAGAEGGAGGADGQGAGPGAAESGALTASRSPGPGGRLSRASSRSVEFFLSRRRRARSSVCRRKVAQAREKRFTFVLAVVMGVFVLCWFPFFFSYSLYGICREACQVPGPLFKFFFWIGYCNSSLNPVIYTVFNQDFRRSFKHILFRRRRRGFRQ

[13] = target: 5-hydroxytryptamine receptor 6 (Homo sapiens, UniProt P50406); settings: Compound concentration 10.0 uM
Histamine H2 receptor = Histamine H2 receptor (Homo sapiens, UniProt P25021); settings: Compound concentration 10.0 uM
Sequence of Histamine H2 receptor (P25021 whole entry): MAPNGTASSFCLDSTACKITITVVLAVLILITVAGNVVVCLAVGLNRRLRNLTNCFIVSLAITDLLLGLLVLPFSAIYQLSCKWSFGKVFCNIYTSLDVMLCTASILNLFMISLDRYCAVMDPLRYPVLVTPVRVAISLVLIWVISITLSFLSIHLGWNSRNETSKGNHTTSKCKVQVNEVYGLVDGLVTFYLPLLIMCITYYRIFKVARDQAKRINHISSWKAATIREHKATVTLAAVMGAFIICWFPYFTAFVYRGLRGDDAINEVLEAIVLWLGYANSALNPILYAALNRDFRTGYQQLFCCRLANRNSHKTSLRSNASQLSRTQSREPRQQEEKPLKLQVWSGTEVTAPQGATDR

[14] = target: 5-hydroxytryptamine receptor 1A (Homo sapiens) (UniProt P08908); settings: Compound concentration 10.0 uM
Sequence of 5-hydroxytryptamine receptor 1A (Homo sapiens) (P08908 whole entry): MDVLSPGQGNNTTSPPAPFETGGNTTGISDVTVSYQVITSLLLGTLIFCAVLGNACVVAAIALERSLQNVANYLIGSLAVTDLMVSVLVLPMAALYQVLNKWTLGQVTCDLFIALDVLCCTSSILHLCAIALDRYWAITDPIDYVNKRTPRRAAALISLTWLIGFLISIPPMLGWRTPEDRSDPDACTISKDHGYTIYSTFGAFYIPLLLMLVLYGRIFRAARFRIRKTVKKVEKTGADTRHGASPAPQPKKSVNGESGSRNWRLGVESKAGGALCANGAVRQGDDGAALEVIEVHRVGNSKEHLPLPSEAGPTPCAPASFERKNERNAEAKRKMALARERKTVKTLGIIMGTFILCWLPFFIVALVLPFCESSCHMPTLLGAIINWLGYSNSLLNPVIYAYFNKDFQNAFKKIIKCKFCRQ

[15] = target: T1, GABA-A receptor; anion channel (Rattus norvegicus); settings: Compound concentration 10.0 uM; remark: listed apart in the source
[16] = target: T4, 5-hydroxytryptamine receptor 1D (Homo sapiens, UniProt P28221); experiment: GPCRScan assay: inhibition of 5-HT1D; design: radioligand conc. used [nm] 1.0 – 2.0, parental cells HEKT
T4 sequence (P28221 whole entry): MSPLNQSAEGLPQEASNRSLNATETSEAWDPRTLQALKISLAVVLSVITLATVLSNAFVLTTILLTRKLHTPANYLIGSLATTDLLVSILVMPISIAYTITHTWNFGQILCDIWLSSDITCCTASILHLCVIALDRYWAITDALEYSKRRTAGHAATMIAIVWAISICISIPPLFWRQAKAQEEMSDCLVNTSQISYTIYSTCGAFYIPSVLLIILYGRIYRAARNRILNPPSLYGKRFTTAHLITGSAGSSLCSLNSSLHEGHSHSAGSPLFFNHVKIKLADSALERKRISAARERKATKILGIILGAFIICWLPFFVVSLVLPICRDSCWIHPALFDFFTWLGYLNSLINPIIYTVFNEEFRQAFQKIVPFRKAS

[17] = target: Alpha-2A adrenergic receptor (Homo sapiens) (UniProt P08913); settings: Compound concentration 10.0 uM
[18] = target: T4, 5-hydroxytryptamine receptor 1D; settings: Compound concentration 10.0 uM
[19] = target: D(2) dopamine receptor (Homo sapiens) (UniProt P14416); settings: Compound concentration 10.0 uM
[20] = target: Muscarinic acetylcholine receptor M2 (Homo sapiens) (UniProt P08172); settings: Compound concentration 10.0 uM
[21] = target: T2, Sodium-dependent noradrenaline transporter; experiment: GPCRScan assay: inhibition of NET; design: radioligand conc. used [nm] 1.3 – 5.0, parental cells stable HEK
[22] = target: 5-hydroxytryptamine receptor 1B (Homo sapiens) (UniProt P28222); settings: Compound concentration 10.0 uM
[23] = target: 5-hydroxytryptamine receptor 2B (Homo sapiens, UniProt P41595); experiment: GPCRScan assay: inhibition of 5-HT2B; design: radioligand conc. used [nm] 1.0 – 2.0, parental cells stable HEK
Sequence of 5-hydroxytryptamine receptor 2B (P41595 whole entry): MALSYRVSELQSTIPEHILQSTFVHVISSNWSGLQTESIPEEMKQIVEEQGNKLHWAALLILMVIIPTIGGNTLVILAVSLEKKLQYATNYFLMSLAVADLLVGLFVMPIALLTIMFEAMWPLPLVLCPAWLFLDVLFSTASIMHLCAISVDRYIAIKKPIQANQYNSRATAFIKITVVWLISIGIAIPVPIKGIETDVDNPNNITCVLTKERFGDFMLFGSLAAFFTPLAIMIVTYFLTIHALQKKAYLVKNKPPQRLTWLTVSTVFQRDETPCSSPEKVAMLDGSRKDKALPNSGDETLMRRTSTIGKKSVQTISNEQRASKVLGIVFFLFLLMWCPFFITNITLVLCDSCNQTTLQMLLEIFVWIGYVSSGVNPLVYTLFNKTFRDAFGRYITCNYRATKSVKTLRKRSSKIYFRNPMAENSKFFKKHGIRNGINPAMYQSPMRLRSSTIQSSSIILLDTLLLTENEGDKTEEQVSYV

[24] = target: 5-hydroxytryptamine receptor 3A (Homo sapiens) (UniProt P46098); settings: Compound concentration 10.0 uM
[25] = target: Muscarinic acetylcholine receptor M3 (Homo sapiens) (UniProt P20309); settings: Compound concentration 10.0 uM
[26] = target: Beta-1 adrenergic receptor (Homo sapiens) (UniProt P08588); settings: Compound concentration 10.0 uM
Sequence of Beta-1 adrenergic receptor (Homo sapiens) (P08588 whole entry, looked up): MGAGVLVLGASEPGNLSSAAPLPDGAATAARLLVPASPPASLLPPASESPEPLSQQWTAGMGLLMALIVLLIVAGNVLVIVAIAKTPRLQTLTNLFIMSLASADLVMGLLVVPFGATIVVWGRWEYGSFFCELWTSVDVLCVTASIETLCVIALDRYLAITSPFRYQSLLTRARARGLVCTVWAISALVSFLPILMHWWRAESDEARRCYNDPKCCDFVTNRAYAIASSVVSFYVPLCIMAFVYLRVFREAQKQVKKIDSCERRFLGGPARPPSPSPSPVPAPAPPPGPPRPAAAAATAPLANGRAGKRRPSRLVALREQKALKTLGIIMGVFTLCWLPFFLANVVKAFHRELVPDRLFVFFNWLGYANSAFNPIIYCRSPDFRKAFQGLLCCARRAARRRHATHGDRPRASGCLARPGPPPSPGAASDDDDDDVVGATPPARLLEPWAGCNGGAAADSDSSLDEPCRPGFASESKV

[27] = target: Delta-type opioid receptor (Homo sapiens) (UniProt P41143); settings: Compound concentration 10.0 uM
[28] = target: Mu-type opioid receptor (Homo sapiens) (UniProt P35372); settings: Compound concentration 10.0 uM
[29] = target: D(1A) dopamine receptor (Homo sapiens) (UniProt P21728); settings: Compound concentration 10.0 uM
Sequence of D(1A) dopamine receptor (Homo sapiens) (P21728 whole entry): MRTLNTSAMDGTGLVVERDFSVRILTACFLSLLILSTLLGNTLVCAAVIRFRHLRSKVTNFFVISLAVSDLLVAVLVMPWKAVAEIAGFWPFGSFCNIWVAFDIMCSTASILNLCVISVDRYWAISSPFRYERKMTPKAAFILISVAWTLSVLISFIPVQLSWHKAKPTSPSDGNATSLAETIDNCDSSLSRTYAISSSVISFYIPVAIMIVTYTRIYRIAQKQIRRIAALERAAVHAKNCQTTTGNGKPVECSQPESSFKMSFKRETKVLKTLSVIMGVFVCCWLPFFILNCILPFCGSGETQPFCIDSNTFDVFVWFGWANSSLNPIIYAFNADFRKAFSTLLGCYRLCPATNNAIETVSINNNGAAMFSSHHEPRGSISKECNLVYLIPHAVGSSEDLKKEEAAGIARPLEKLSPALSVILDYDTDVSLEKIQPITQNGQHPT

Rattus norvegicus = species on record: Rattus norvegicus; settings: Compound concentration 10.0 uM
[30] = target: Kappa-type opioid receptor (Homo sapiens) (UniProt P41145); settings: Compound concentration 10.0 uM
Sequence of Kappa-type opioid receptor (Homo sapiens) (P41145 whole entry): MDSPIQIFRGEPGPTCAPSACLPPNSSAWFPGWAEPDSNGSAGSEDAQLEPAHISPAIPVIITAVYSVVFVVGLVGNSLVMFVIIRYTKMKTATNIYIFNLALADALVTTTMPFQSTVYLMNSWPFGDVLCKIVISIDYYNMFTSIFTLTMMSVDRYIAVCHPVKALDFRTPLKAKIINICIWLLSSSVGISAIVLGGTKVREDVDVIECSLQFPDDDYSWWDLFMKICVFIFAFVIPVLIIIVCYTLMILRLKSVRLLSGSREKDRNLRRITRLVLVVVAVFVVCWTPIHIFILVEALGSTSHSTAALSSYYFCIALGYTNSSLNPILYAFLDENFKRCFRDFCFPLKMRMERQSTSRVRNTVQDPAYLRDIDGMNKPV

[31] = target: Histamine H1 receptor (Homo sapiens) (UniProt P35367); settings: Compound concentration 10.0 uM
[32] = target: Sodium-dependent serotonin transporter (Homo sapiens) (UniProt P31645); settings: Compound concentration 10.0 uM
[33] = target: D(3) dopamine receptor (Homo sapiens) (UniProt P35462); settings: Compound concentration 10.0 uM
[34] = target: Muscarinic acetylcholine receptor M4 (Homo sapiens) (UniProt P08173); settings: Compound concentration 10.0 uM
[35] = target: 5-hydroxytryptamine receptor 7 (Homo sapiens, UniProt P34969); settings: Compound concentration 10.0 uM
Histamine H3 receptor = Histamine H3 receptor (Homo sapiens, UniProt Q9Y5N1); settings: Compound concentration 10.0 uM

inhibition [1]: 2.33%
inhibition [2]: 20.6%
inhibition [3]: 89.2%
inhibition [4]: 3.36%
inhibition [5]: 33.6%
inhibition [6]: 3.89%
inhibition [7]: 25.1%
inhibition [8]: 75.8%
inhibition [9]: -5.62%
inhibition [10]: 36.6%
inhibition [11]: 25.1%
Ki ([12]; read-out: Ki): 3.43 µM
Ki ([12]; read-out: pKi (converted)): 3.39 µM
inhibition [13]: 32.1%
inhibition (Histamine H2 receptor): 28.6%
inhibition [14]: 30%
inhibition [15]: 67.4%
Ki ([16]; read-out: Ki): 0.417 µM
Ki ([16]; read-out: pKi (converted)): 0.631 µM
inhibition [17]: 12.8%
inhibition [18]: 81.9%
inhibition [19]: 4.96%
inhibition [20]: 7.21%
Ki ([21]; read-out: Ki): 1.94 µM
Ki ([21]; read-out: pKi (converted)): 1.91 µM
inhibition [22]: 24.4%
Ki ([23]; read-out: Ki): 0.699 µM
inhibition [24]: 27.7%
inhibition [25]: 7.48%
inhibition [26]: 3.97%
inhibition [27]: 4.65%
inhibition [28]: 10.8%
inhibition [29]: -8.84%
inhibition (Rattus norvegicus): 17.9%
inhibition [30]: 36.6%
inhibition [31]: 40.1%
inhibition [32]: 5.83%
inhibition [33]: 47%
inhibition [34]: 20.6%
inhibition [35]: 34.6%
inhibition (Histamine H3 receptor): 35.1%
Structure (SMILES): CC1CCN(c2ccnc(NCc3cn(C)cn3)n2)CC1 [TP-040]

inhibition [1]: 34.6%
inhibition [2]: 98%
inhibition [3]: 94.8%
inhibition [4]: 19.5%
inhibition [5]: 77.2%
inhibition [6]: 13%
inhibition [7]: 26%
inhibition [8]: 93.8%
inhibition [9]: 22.1%
inhibition [10]: 98.8%
inhibition [11]: 6.46%
Ki ([12]; read-out: Ki): 0.414 µM
Ki ([12]; read-out: pKi (converted)): 0.407 µM
inhibition [13]: 80.4%
inhibition (Histamine H2 receptor): 95.6%
inhibition [14]: 26.7%
inhibition [15]: 22.9%
Ki ([16]; read-out: Ki): 2.04 µM
Ki ([16]; read-out: pKi (converted)): 1.82 µM
inhibition [17]: 34.6%
inhibition [18]: 53.2%
inhibition [19]: 20.6%
inhibition [20]: -1.51%
Ki ([21]; read-out: Ki): 3.11 µM
Ki ([21]; read-out: pKi (converted)): 3.02 µM
inhibition [22]: 45.9%
Ki ([23]; read-out: Ki): 0.291 µM
Ki ([23]; read-out: pKi (converted)): 0.282 µM
inhibition [24]: 22.4%
inhibition [25]: -3.28%
inhibition [26]: 6.05%
inhibition [27]: 8.02%
inhibition [28]: 25.9%
inhibition [29]: 26.5%
inhibition (Rattus norvegicus): -0.34%
inhibition [30]: 23.7%
inhibition [31]: 41.6%
inhibition [32]: 35.8%
inhibition [33]: 22.6%
inhibition [34]: 25.9%
inhibition [35]: 92.4%
inhibition (Histamine H3 receptor): 86.2%
Structure (SMILES): CN1CCN(c2ccnc(NCCc3ccccc3)n2)CC1 [TP-040n]
